What was measured:
[1] = Oxygen singlet production by Singlet Oxygen Sensor Green assay; conditions: compound 25 μM, after white light irradiation 79.2 J cm^−2
Method: The production of singlet oxygen by the different amino-based compounds in solution was determined as follows: a stock solution of Singlet Oxygen Sensor Green was prepared at 5 mM in methanol (MeOH). Working solutions of the probe were prepared at 2 mM in 100 mM pH 7.5 Tris buffer and in 100 mM pH 7.5 Tris buffer with 10 mM of Sodium Azide. The compounds were then prepared at a stock concentration of 500 μM and the working solutions were prepared in 100 mM pH 7.5 Tris buffer and in 100 mM pH 7.5 Tris buffer with 10 mM of Sodium Azide. 1 μL of Singlet Oxygen Sensor Green working solutions and 100 μL of compounds solution were mixed to a final volume of 1000 μL (in 100 mM pH 7.5 Tris buffer or in 100 mM pH 7.5 Tris buffer with 10 mM of Sodium Azide). 100 μL of each solution was then added to a 96-well black plate and 100 μL of Deuterium Oxide was added for a final concentration of 1 μM Singlet Oxygen Sensor Green and 25 μM for the different amino-based compounds. The fluorescence was then registered in a spectrofluorometer using excitation/emission of 488/525 nm. After this procedure, the wells were irradiated with a white light source with a total of 79.2 J cm^−2, corresponding to a total irradiation time of 1 h (6 pulses of 10 min) and then, the fluorescence determined using the same excitation/emission pair. As a positive control, Methylene Blue was used at a final concentration of 10 μM. The oxygen singlet production methodology was performed in a dark room.

HaCaT cells = assay: Cellular uptake by HaCaT cells (overall uptake, adsorption/absorption ratio, kinetics); assay type: in vitro ADME, human; conditions: for % Uptake ± SEM: 4 h; for Uptake amount, range over the initial concentrations: 4 h incubation, 6.25–100 μM
Method: The cellular uptake of the different compounds by HaCaT cells was determined following the protocol: cells were seeded at a density of 4 × 10^4 cells/well onto 12-well plates (1060 μL per well) and after 24 h the compounds were added to the plates in different concentrations (6.25–100 μM; 1060 μL per well) and incubated for a period of 4 h at 37 °C in an atmosphere of 5% CO2 and in the presence of DMEM with 2% FBS. Then, the medium with the compounds was removed, cells are washed with PBS to remove any extracellular compounds and the same volume of DMSO (1060 µL) was added to cells. After 60 min in the dark, the plates were submitted to fluorescence determination. The fluorescence intensity of each well was then recorded at the different wavelength pairs specific for each tested compound (ex/em) in a FlexStation 3 Multi-Mode Microplate Reader. The fluorescence values were then used to plot into the corresponding calibration curves and the uptake amounts were determined. • Fl577/658 = 19.734 × Conc (7NEt24′NMe2), μM; Fl577/769 = 0.2869 × Conc (7NEt2st4′NMe2), μM; • Fl577/635 = 24.556 × Conc (7NEt24′NH2), μM; Fl577/635 = 42.851 × Conc (PpIX), μM;
The ratio between the absorption and surface adsorption by HaCaT for each compound was performed. Cells were seeded in the same conditions as previously stated. After 24 h, compounds were added to the plates at the concentration of 100 μM (1060 μL per well) and incubated for a period of 4 h at 37 °C in an atmosphere of 5% CO2 and in the presence of DMEM with 2% FBS. After incubation, the medium with the compounds was removed and Dulbecco’s phosphate buffer (DPBS) was added (1060 μL per well). The fluorescence intensity of each well was then determined at the different wavelength pairs specific for each tested compound (ex/em) using a FlexStation 3 Multi‐Mode Microplate Reader. After this, 300 μL of Trypan Blue was added ([…]) to each well and the fluorescence intensity was determined in the same conditions. Cells with DPBS and cells with DPBS + Trypan Blue were used as controls. • Fl577/658 = 19.734 × Conc (7NEt24′NMe2), μM; Fl577/769 = 0.2869 × Conc (7NEt2st4′NMe2), μM; • Fl577/635 = 24.556 × Conc (7NEt24′NH2), μM; Fl577/635 = 42.851 × Conc (PpIX), μM;
The cellular uptake kinetics of the different compounds by HaCaT cells was determined as follows: cells were seeded at a density of 4 × 10^4 cells/well onto 12-well plates (1060 μL per well) and after 24 h compounds were added to the plates at a concentration of 100 μM (1060 μL per well) and incubated for different time periods (15, 30, 60, 120, 180 and 240 min) at 37 °C in an atmosphere of 5% CO2 and in the presence of DMEM with 2% FBS. After each time period, the medium with the compounds was removed and DMSO was added to cells. After 60 min in the dark the plates were submitted to fluorescence determination. The fluorescence intensity of each well was then determined at the different wavelength pairs specific for each tested compound (ex/em) (FlexStation 3 Multi-Mode Microplate Reader). The fluorescence values were then used to plot into the corresponding calibration curves and the uptake amounts were determined.

SMILES: C=CC1=C(C)c2cc3[nH]c(cc4nc(cc5[nH]c(cc1n2)c(C)c5CCC(=O)O)C(CCC(=O)O)=C4C)c(C)c3C=C [PpIX, protoporphyrin IX, reference compound]
- ^1O2 production [1]: 263.3 ± 12.28%
- % Uptake ± SEM (HaCaT cells; initial concentration 6.25 μM): 0.694 ± 0.110%
- % Uptake ± SEM (HaCaT cells; initial concentration 12.5 μM): 0.615 ± 0.050%
- % Uptake ± SEM (HaCaT cells; initial concentration 25 μM): 0.508 ± 0.021%
- % Uptake ± SEM (HaCaT cells; initial concentration 50 μM): 0.667 ± 0.040%
- % Uptake ± SEM (HaCaT cells; initial concentration 100 μM): 0.659 ± 0.037%

SMILES: CCN(CC)c1ccc2ccc(-c3ccc(N(C)C)cc3)[o+]c2c1 [7NEt24′NMe2, 7-diethylamino-4′-dimethylamino-benzopyrylium]
- ^1O2 production [1]: 131.2 ± 3.90%
- Uptake amount, range over the initial concentrations (HaCaT cells): 2.745–4.156%
- % Uptake ± SEM (HaCaT cells; initial concentration 6.25 μM): 3.416 ± 0.629%
- % Uptake ± SEM (HaCaT cells; initial concentration 12.5 μM): 4.156 ± 0.764%
- % Uptake ± SEM (HaCaT cells; initial concentration 25 μM): 2.745 ± 0.504%
- % Uptake ± SEM (HaCaT cells; initial concentration 50 μM): 3.660 ± 0.831%
- % Uptake ± SEM (HaCaT cells; initial concentration 100 μM): 3.523 ± 0.695%

SMILES: CCN(CC)c1ccc2ccc(/C=C/c3ccc(N(C)C)cc3)[o+]c2c1 [7NEt2st4′NMe2, 7-(diethylamino)-2-(4′-dimethylaminostyryl)-benzopyrylium]
- ^1O2 production [1]: 181.2 ± 22.23%
- Uptake amount, range over the initial concentrations (HaCaT cells): 3.564–5.830%
- % Uptake ± SEM (HaCaT cells; initial concentration 6.25 μM): 4.448 ± 0.876%
- % Uptake ± SEM (HaCaT cells; initial concentration 12.5 μM): 4.236 ± 0.628%
- % Uptake ± SEM (HaCaT cells; initial concentration 25 μM): 3.564 ± 0.613%
- % Uptake ± SEM (HaCaT cells; initial concentration 50 μM): 4.091 ± 0.552%
- % Uptake ± SEM (HaCaT cells; initial concentration 100 μM): 5.830 ± 1.569%

SMILES: CCN(CC)c1ccc2ccc(-c3ccc(N)cc3)[o+]c2c1 [7NEt24′NH2, 4′-amino-7-diethylamino-benzopyrylium]
- ^1O2 production [1]: 173.1 ± 15.73%
- Uptake amount, range over the initial concentrations (HaCaT cells): 1.229–2.192%
- % Uptake ± SEM (HaCaT cells; initial concentration 6.25 μM): 1.229 ± 0.296%
- % Uptake ± SEM (HaCaT cells; initial concentration 12.5 μM): 1.828 ± 0.419%
- % Uptake ± SEM (HaCaT cells; initial concentration 25 μM): 1.977 ± 0.581%
- % Uptake ± SEM (HaCaT cells; initial concentration 50 μM): 2.192 ± 0.662%
- % Uptake ± SEM (HaCaT cells; initial concentration 100 μM): 1.785 ± 0.383%

— article PMC8578629, “Photoactivated cell-killing amino-based flavylium compounds” (Scientific Reports, 2021)
